The values below come from PMC5725799, “Comparative binding properties of the tau PET tracers THK5117, THK5351, PBB3, and T807 in postmortem Alzheimer brains” (Alzheimer's Research & Therapy, 2017).

Where “and” joins values, the source holds several entries; their conditions need not be identical. Identical values can stand only once.

One assay relates to MAO-B. The arrangement: method as in PMID 28374768. Conditions: cited from earlier work.
Assay [1] concerns the target tau (Homo sapiens, UniProt P10636). In words: Competition binding assay with ^3H-THK5351 in postmortem hippocampus brain homogenates. Conditions: vs ^3H-THK5351 1.5 nM, AD hippocampus homogenate; read-out: Ki2 (high-affinity site). The procedure: (§1) Postmortem brain tissues from three patients with AD and three healthy control subjects were used for the in vitro binding assays. All the brain tissue, which came from the Netherlands Brain Bank, had been homogenized in PBS containing a protease/phosphatase inhibitor (see Table 1).
After 2-h incubation at room temperature, the binding assay was terminated by filtration through glass fiber filters presoaked for at least 3 h in 0.3% polyethylenimine. To do so, the filters were rinsed and filtered three times using cold binding buffer, and then the radiation on the filter was quantified using a Beckman Coulter scintillation counter. The data for the regional binding distribution studies were analyzed using Prism version 7.0 software for Mac (GraphPad Software Inc., La Jolla, CA, USA), and two-way analysis of variance with multiple comparisons was performed.

For assay [2], the target named is T1, monoamine oxidase B (MAO-B) (Homo sapiens, UniProt P27338).
T1 construct: postmortem brain homogenates from the hippocampus and putamen (0.2 mg/ml tissue) of two patients with AD; tissue Netherlands Brain Bank; host or cells: postmortem human AD hippocampus and putamen homogenate
T1 sequence (P27338 1-520): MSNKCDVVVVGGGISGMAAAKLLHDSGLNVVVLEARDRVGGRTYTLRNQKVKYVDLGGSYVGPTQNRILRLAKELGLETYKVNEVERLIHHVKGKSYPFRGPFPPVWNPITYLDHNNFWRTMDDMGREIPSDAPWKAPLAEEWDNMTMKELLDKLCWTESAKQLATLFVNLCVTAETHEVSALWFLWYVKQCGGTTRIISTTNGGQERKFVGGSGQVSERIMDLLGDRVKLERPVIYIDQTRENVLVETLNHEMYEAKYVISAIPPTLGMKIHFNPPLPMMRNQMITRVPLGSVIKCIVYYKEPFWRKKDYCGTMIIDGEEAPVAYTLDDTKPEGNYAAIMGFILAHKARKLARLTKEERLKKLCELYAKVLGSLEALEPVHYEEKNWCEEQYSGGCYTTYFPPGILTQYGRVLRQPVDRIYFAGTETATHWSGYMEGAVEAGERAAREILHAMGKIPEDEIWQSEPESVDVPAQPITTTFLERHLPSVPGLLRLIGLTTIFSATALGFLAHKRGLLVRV
In words: Competition binding with ^3H-deprenyl in hippocampus and putamen brain homogenates (off-target binding). The settings on record: vs ^3H-deprenyl 10 nM, two AD cases. The protocol: Competition binding studies using postmortem brain homogenates from the hippocampus and putamen (0.2 mg/ml tissue) of two patients with AD were performed using ^3H-deprenyl (10 nM in Na-K phosphate buffer, pH 7.4) and increasing concentrations of unlabeled THK5117 (10^−14 to 10^−5 M) and T807 (10^−14 to 10^−5 M) to determine the off-target binding of the tau PET tracers. After 2-h incubation at room temperature, the binding assay was terminated by filtration through glass fiber filters presoaked for at least 3 h in 0.3% polyethylenimine. To do so, the filters were rinsed and filtered three times using cold binding buffer, and then the radiation on the filter was quantified using a Beckman Coulter scintillation counter. The data from all the binding studies were analyzed using Prism version 7.0 software.

Assay [3] deals with tau. In words: Regional binding distribution of ^3H-THK5117 and ^3H-THK5351 in brain homogenate. The arrangement: species or system human. Conditions: temporal cortex homogenate, ^3H-THK5117 3 nM vs ^3H-THK5351 1.5 nM, p < 0.0001. The procedure: as §1
The regional binding distribution comparison between ^3H-THK5351 and ^3H-THK5117 was carried out in postmortem frontal and temporal cortical and hippocampal tissue from the brains of three patients with AD and three control subjects. The protocol was similar for ^3H-THK5351 (1.5 nM) and ^3H-THK5117 (3 nM): 0.1 mg of tissue in PBS + 0.1% bovine serum albumin (BSA) to a final volume of 500 μl, followed by incubation for 2 h at room temperature. The nonspecific binding was determined using 1 μM unlabeled THK5351 or unlabeled THK5117. After 2-h incubation at room temperature, the competition binding assay was stopped using filtration through glass fiber filters, and the radiation was then quantified using the scintillation counter.

The test system of assay [4] is tau. In words: ^3H-THK5117 and ^3H-THK5351 autoradiography of large frozen postmortem brain sections, total binding. The arrangement: species or system human. The settings on record: 3 nM tracer. The protocol:
Postmortem frozen left brain hemispheres from three patients with AD were obtained from the Neuropathology of Dementia Laboratory (Indiana University School of Medicine, Indianapolis, IN, USA) and used for the autoradiography experiment. The frozen sections were allowed to reach room temperature, preincubated for 10 minutes with PBS + 0.1% BSA (pH 7.4), and then incubated for 1 h at room temperature with ^3H-THK5351 (3 nM) or ^3H-THK5117 (3 nM). The sections were rinsed three times in cold buffer for 5 minutes, followed by a quick dip in cold distilled water. Nonspecific binding was determined using 10 μM unlabeled THK5351 or 10 μM unlabeled THK5117. […]
(§2) For all the autoradiography studies, the regions of interest were drawn manually on the autoradiogram using multigauge software and were used for the semiquantitative analyses. Photostimulated luminescence per square millimeter (PSL/mm^2) was transformed to picomoles per cubic millimeter using a transformation factor that took into account the resolution of the image, the pixel value for the concentration of ligand, and the thickness of the sections: (PSL/mm^2 value)/([pixel value per pmol] × [(resolution/1000)^2] × [cryosection thickness]/1000).

Assay [5] deals with tau. The assay is described as follows: ^3H-THK5351 competition autoradiography with unlabeled THK5351, T807 and deprenyl. It is filed as binding, human. Conditions: cortical areas. The protocol:
Six adjacent sections from AD1 (see Table 1) were used for competition autoradiography of unlabeled THK5351, T807, and deprenyl. After reaching room temperature, the frozen sections were preincubated for 10 minutes with PBS (pH 7.4) and then incubated for 1 h at room temperature with ^3H-THK5351 (1.5 nM) in addition to 10 μM unlabeled THK5351; 10 μM unlabeled deprenyl; 10 μM unlabeled T807; 10 μM unlabeled THK5351 and 10 μM unlabeled deprenyl; 10 μM unlabeled T807 and 10 μM unlabeled deprenyl. The sections were rinsed three times in cold buffer for 5 minutes, followed by a quick dip in cold distilled water. Nonspecific binding was determined using 10 μM unlabeled THK5351 or 10 μM unlabeled THK5117. […]
as §2

tau (Homo sapiens, UniProt P10636), sequence (P10636 623-695 limits assumed): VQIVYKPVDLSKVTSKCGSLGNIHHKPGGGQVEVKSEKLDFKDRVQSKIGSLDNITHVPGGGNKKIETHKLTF

For the compound `CNc1ccc(-c2ccc3cc(OCC(O)CF)ccc3n2)cc1` (centres unmarked) [THK5117], in the assay with MAO-B, the “affinity between MAO-B and THK5117” value is given as “around 300 nM”. Moreover, the Ki was 20 nM on tau [1]; 286 nM and > 200 nM in assay [2] (hippocampus homogenate); 148 nM and ~150 nM in assay [2] (putamen homogenate).

Consider `[3H]CNc1ccc(-c2ccc3cc(OCC(O)CF)ccc3n2)cc1` (centres unmarked) [^3H-THK5117, 1-Fluoro-3-((2-(4-([^3H]methylamino)phenyl)quinolin-6-yl)oxy)propan-2-ol], for which, in the assay on tau [3], the “extent of binding compared with ^3H-THK5351” value is listed as “more extensive binding of ^3H-THK5117 than of ^3H-THK5351”. The Total Binding is reported as 312 fmol/mg with tau [4] (AD1, Frontal cortex) and 261 fmol/mg in the assay on tau [4] (AD1, Temporal cortex).

As to `Fc1ccc(-c2ccc3c(c2)[nH]c2ccncc23)cn1` [T807], the Ki on tau [1] was 78 nM; in assay [2] (hippocampus homogenate) it was 227 nM and > 200 nM; in assay [2] (putamen homogenate) it was 135 nM and ~150 nM. For the same compound, in the assay on tau [5], the “^3H-THK5351 binding displaced” value is reported as 70–80%.
